Key:
A549 [1] = assay: Cytotoxicity against human A549 cells assessed as cell growth inhibition at 10 uM after 48 hrs by MTT assay; format: functional; settings: A549, 48 h, read-out: GI
A549 [2] = assay: Cytotoxicity against human A549 cells assessed as cell growth inhibition after 48 hrs by MTT assay; format: functional, cell-based; settings: A549, 48 h
[3] = Cytotoxicity against human PC3 cells assessed as cell growth inhibition after 48 hrs by MTT assay; format: functional, cell-based; settings: PC-3, 48 h
[4] = Cytotoxicity against human MIAPaCa2 cells assessed as cell growth inhibition after 48 hrs by MTT assay; format: functional, cell-based; settings: MIA PaCa-2, 48 h
[5] = Cytotoxicity against human HL60 cells assessed as cell growth inhibition at 10 uM after 48 hrs by MTT assay; format: functional; settings: HL-60, 48 h, read-out: GI
[6] = Cytotoxicity against human PC3 cells assessed as cell growth inhibition at 10 uM after 48 hrs by MTT assay; format: functional; settings: PC-3, 48 h, read-out: GI
[7] = Cytotoxicity against human MIAPaCa2 cells assessed as cell growth inhibition at 10 uM after 48 hrs by MTT assay; format: functional; settings: MIA PaCa-2, 48 h, read-out: GI
[8] = Cytotoxicity against human HL60 cells assessed as cell growth inhibition after 48 hrs by MTT assay; format: functional, cell-based; settings: HL-60, 48 h

Row | SMILES | inhibition of growth at 10 µM (A549 [1]) [%] | IC50 (A549 [2]) [µM] | IC50 [3] [µM] | IC50 [4] [µM] | inhibition of growth at 10 µM [5] [%] | inhibition of growth at 10 µM [6] [%] | inhibition of growth at 10 µM [7] [%] | IC50 [8] [µM]
1 | C=C(C)[C@@H]1CC[C@]2(C(=O)OCc3cn(-c4ccc5cc(OC)ccc5c4)nn3)CC[C@]3(C)[C@H](CC[C@@H]4[C@@]5(C)CC[C@H](O)C(C)(C)[C@@H]5CC[C@]43C)[C@@H]12 | 22 | > 100 | 31 | > 100 | 35 | 33 | 12 | 29
2 | C=C(C)[C@@H]1CC[C@]2(C(=O)OCc3cn(-c4ccccc4C#N)nn3)CC[C@]3(C)[C@H](CC[C@@H]4[C@@]5(C)CC[C@H](OCc6cn(-c7ccccc7C#N)nn6)C(C)(C)[C@@H]5CC[C@]43C)[C@@H]12 | 0 |  |  |  | 12 | 15 | 23 | 
3 | C=C(C)[C@@H]1CC[C@]2(C(=O)OCc3cn(-c4ccc(-c5ccccc5)cc4)nn3)CC[C@]3(C)[C@H](CC[C@@H]4[C@@]5(C)CC[C@H](O)C(C)(C)[C@@H]5CC[C@]43C)[C@@H]12 | 5 |  |  |  | 13 | 10 | 10 | 
4 | C=C(C)[C@@H]1CC[C@]2(C(=O)OCc3cn(-c4cccc(OC)c4OC)nn3)CC[C@]3(C)[C@H](CC[C@@H]4[C@@]5(C)CC[C@H](O)C(C)(C)[C@@H]5CC[C@]43C)[C@@H]12 | 48 |  |  |  | 58 | 49 | 30 | 
5 | C=C(C)[C@@H]1CC[C@]2(C(=O)OCc3cn(-c4ccc(C#N)cc4)nn3)CC[C@]3(C)[C@H](CC[C@@H]4[C@@]5(C)CC[C@H](O)C(C)(C)[C@@H]5CC[C@]43C)[C@@H]12 | 63 | 7 | 12 | 8 | 55 | 46 | 57 | 8
6 | C=C(C)[C@@H]1CC[C@]2(C(=O)OCc3cn(-c4ccc(C=O)cc4)nn3)CC[C@]3(C)[C@H](CC[C@@H]4[C@@]5(C)CC[C@H](O)C(C)(C)[C@@H]5CC[C@]43C)[C@@H]12 | 4 |  |  |  | 21 | 9 | 7 | 
7 | C=C(C)[C@@H]1CC[C@]2(C(=O)OCc3cn(-c4ccccc4I)nn3)CC[C@]3(C)[C@H](CC[C@@H]4[C@@]5(C)CC[C@H](O)C(C)(C)[C@@H]5CC[C@]43C)[C@@H]12 | 40 | > 100 | > 100 | 8 | 38 | 29 | 53 | 27
8 | C=C(C)[C@@H]1CC[C@]2(C(=O)OCc3cn(-c4cccc5c(O)cccc45)nn3)CC[C@]3(C)[C@H](CC[C@@H]4[C@@]5(C)CC[C@H](OCc6cn(-c7cccc8c(O)cccc78)nn6)C(C)(C)[C@@H]5CC[C@]43C)[C@@H]12 | 18 |  |  |  | 23 | 18 | 19 | 
9 | C=C(C)[C@@H]1CC[C@]2(C(=O)OCc3cn(-c4ccc(OC)c(OC)c4)nn3)CC[C@]3(C)[C@H](CC[C@@H]4[C@@]5(C)CC[C@H](O)C(C)(C)[C@@H]5CC[C@]43C)[C@@H]12 | 6 | 16 | 11 | 21 | 7 | 8 | 8 | 8
10 | C#CCOC(=O)[C@]12CC[C@@H](C(=C)C)[C@@H]1[C@H]1CC[C@@H]3[C@@]4(C)CC[C@H](O)C(C)(C)[C@@H]4CC[C@@]3(C)[C@]1(C)CC2 | 41 |  |  |  | 50 | 46 | 20 | 
11 | C=C(C)[C@@H]1CC[C@]2(C(=O)OCc3cn(-c4ccccc4)nn3)CC[C@]3(C)[C@H](CC[C@@H]4[C@@]5(C)CC[C@H](O)C(C)(C)[C@@H]5CC[C@]43C)[C@@H]12 | 27 | 18 | 18 | 18 | 11 | 25 | 39 | 27
12 | C=C(C)[C@@H]1CC[C@]2(C(=O)OCc3cn(-c4cc(C)ccc4C)nn3)CC[C@]3(C)[C@H](CC[C@@H]4[C@@]5(C)CC[C@H](O)C(C)(C)[C@@H]5CC[C@]43C)[C@@H]12 | 41 |  |  |  | 51 | 44 | 38 | 
13 | C=C(C)[C@@H]1CC[C@]2(C(=O)OCc3cn(-c4ccc(F)cc4)nn3)CC[C@]3(C)[C@H](CC[C@@H]4[C@@]5(C)CC[C@H](OCc6cn(-c7ccc(F)cc7)nn6)C(C)(C)[C@@H]5CC[C@]43C)[C@@H]12 | 11 |  |  |  | 13 | 8 | 7 | 
14 | C=C(C)[C@@H]1CC[C@]2(C(=O)OCc3cn(-c4c(F)ccc(OC)c4Br)nn3)CC[C@]3(C)[C@H](CC[C@@H]4[C@@]5(C)CC[C@H](O)C(C)(C)[C@@H]5CC[C@]43C)[C@@H]12 | 7 |  |  |  | 12 | 5 | 7 | 
15 | C=C(C)[C@@H]1CC[C@]2(C(=O)OCc3cn(-c4cccc(OCc5ccc(F)cc5)c4)nn3)CC[C@]3(C)[C@H](CC[C@@H]4[C@@]5(C)CC[C@H](O)C(C)(C)[C@@H]5CC[C@]43C)[C@@H]12 | 6 |  |  |  | 32 | 4 | 9 | 
16 | C=C(C)[C@@H]1CC[C@]2(C(=O)OCc3cn(-c4ccc(C(C)(C)C)cc4)nn3)CC[C@]3(C)[C@H](CC[C@@H]4[C@@]5(C)CC[C@H](O)C(C)(C)[C@@H]5CC[C@]43C)[C@@H]12 | 9 |  |  |  | 11 | 9 | 9 | 
17 | C=C(C)[C@@H]1CC[C@]2(C(=O)OCc3cn(-c4cccc5c(O)cccc45)nn3)CC[C@]3(C)[C@H](CC[C@@H]4[C@@]5(C)CC[C@H](O)C(C)(C)[C@@H]5CC[C@]43C)[C@@H]12 | 7 |  |  |  | 26 | 5 | 3 | 
18 | C=C(C)[C@@H]1CC[C@]2(C(=O)OCc3cn(-c4ccc(NC(=O)c5ccccc5)cc4)nn3)CC[C@]3(C)[C@H](CC[C@@H]4[C@@]5(C)CC[C@H](O)C(C)(C)[C@@H]5CC[C@]43C)[C@@H]12 | 2 |  |  |  | 0 | 21 | 0 | 
19 | C=C(C)[C@@H]1CC[C@]2(C(=O)OCc3cn(-c4ccc(OCCC)c(Cl)c4)nn3)CC[C@]3(C)[C@H](CC[C@@H]4[C@@]5(C)CC[C@H](O)C(C)(C)[C@@H]5CC[C@]43C)[C@@H]12 | 1 |  |  |  | 23 | 7 | 3 | 
20 | C=C(C)[C@@H]1CC[C@]2(C(=O)OCc3cn(/C=C/c4ccccc4)nn3)CC[C@]3(C)[C@H](CC[C@@H]4[C@@]5(C)CC[C@H](O)C(C)(C)[C@@H]5CC[C@]43C)[C@@H]12 | 47 |  |  |  | 20 | 8 | 35 | 
21 | C=C(C)[C@@H]1CC[C@]2(C(=O)OCc3cn(-c4ccc5oc6ccccc6c5c4)nn3)CC[C@]3(C)[C@H](CC[C@@H]4[C@@]5(C)CC[C@H](O)C(C)(C)[C@@H]5CC[C@]43C)[C@@H]12 | 5 |  |  |  | 14 | 4 | 7 | 
22 | C=C(C)[C@@H]1CC[C@]2(C(=O)OCc3cn(-c4ccc(C)cc4)nn3)CC[C@]3(C)[C@H](CC[C@@H]4[C@@]5(C)CC[C@H](O)C(C)(C)[C@@H]5CC[C@]43C)[C@@H]12 | 52 |  |  |  | 56 | 67 | 34 | 
23 | C=C(C)[C@@H]1CC[C@]2(C(=O)OCc3cn(-c4ccccc4C#N)nn3)CC[C@]3(C)[C@H](CC[C@@H]4[C@@]5(C)CC[C@H](O)C(C)(C)[C@@H]5CC[C@]43C)[C@@H]12 | 9 |  |  |  | 22 | 6 | 4 | 
24 | C=C(C)[C@@H]1CC[C@]2(C(=O)OCc3cn(-c4cccc([N+](=O)[O-])c4)nn3)CC[C@]3(C)[C@H](CC[C@@H]4[C@@]5(C)CC[C@H](O)C(C)(C)[C@@H]5CC[C@]43C)[C@@H]12 | 8 |  |  |  | 21 | 10 | 9 | 
25 | C=C(C)[C@@H]1CC[C@]2(C(=O)OCc3cn(-c4ccc5ccccc5c4)nn3)CC[C@]3(C)[C@H](CC[C@@H]4[C@@]5(C)CC[C@H](O)C(C)(C)[C@@H]5CC[C@]43C)[C@@H]12 | 1 |  |  |  | 18 | 7 | 6 | 

— ChEMBL document CHEMBL3758109, “A novel triazole derivative of betulinic acid induces extrinsic and intrinsic apoptosis in human leukemia HL-60 cells” (Eur J Med Chem, 2016)
